Test systems include Pseudomonas aeruginosa; Escherichia coli; Klebsiella pneumoniae; Candida albicans; Staphylococcus aureus; Acinetobacter baumannii; Escherichia coli D31; Micrococcus luteus; Bacillus megaterium; Aerococcus viridans; Alternaria brassicicola; Escherichia coli D22; Fusarium culmorum; Neurospora crassa; Botrytis cinerea.
Test in all cases: ≥ marks a high value that may be exact or a test limit, other limits are often not marked, values filed in µg/mL are converted to µM
The subject of assay [1] is Pseudomonas aeruginosa ATCC 9027.
The test system of assay [2] is Pseudomonas aeruginosa ATCC BAA-2110.
In assay [3] the test system is Acinetobacter baumannii ATCC 9955.
For assay [4], the system named is Klebsiella pneumoniae ATCC BAA-1705.
The subject of assay [5] is Klebsiella pneumoniae ATCC 33495.
Assay [6] deals with Candida albicans ATCC 10231.
Assay [7] has as its system Staphylococcus aureus ATCC 25923.
Assay [8] deals with Staphylococcus aureus ATCC 29213.
Assay [9] relates to Escherichia coli ATCC 25922.
In assay [10] the test system is Klebsiella pneumoniae ATCC 13883.
Assay [11] has as its system Escherichia coli ATCC 51659.
In assay [12] the test system is Acinetobacter baumannii ATCC BAA-1794.
The test system of assay [13] is Enterococcus faecalis ATCC 22192.
For assay [14], the system named is Staphylococcus aureus ATCC 33592.
The subject of assay [15] is Escherichia coli ATCC 4157.
Assay [16] concerns Staphylococcus epidermidis.
Assay [17] concerns Enterococcus faecalis ATCC 51299.
Assay [18] concerns Pseudomonas aeruginosa ATCC 27853.
Assay [19] concerns Acinetobacter baumannii Ab41.
Assay [20] deals with Acinetobacter baumannii AbR-215.
In assay [21] the test system is Escherichia coli ATCC 8739.
Assay [22] deals with Mycobacterium tuberculosis WXY.
The subject of assay [23] is Mycobacterium tuberculosis CAS3.
Assay [24] relates to Mycobacterium tuberculosis FYX.
The test system of assay [25] is Saccharomyces cerevisiae S288C.
Assay [26] deals with Streptococcus sobrinus ATCC 6715.
In assay [27] the test system is Streptococcus sanguinis ATCC 10556.
Assay [28] concerns Streptococcus mutans UA159.

The record followed here is DBAASP.

≈ marks a conversion by molar mass, not a printed value. Some results are limits rather than exact numbers.

The term MIC denotes the lowest concentration that inhibits growth of the organism. A high value points to weaker potency. For `CC[C@H](C)[C@H](NC(=O)[C@H](CCCCN)NC(=O)[C@H](CCCN=C(N)N)NC(=O)[C@H](CCCN=C(N)N)NC(=O)[C@H](CC(C)C)NC(=O)[C@H](CCCCN)NC(=O)[C@H](CCCCN)NC(=O)[C@H](Cc1ccccc1)NC(=O)[C@H](CC(C)C)NC(=O)CN)C(=O)N[C@@H](CCCCN)C(=O)N[C@@H](CCCCN)C(=O)NCC(=O)N[C@@H](Cc1ccccc1)C(=O)N[C@@H](CCCCN)C(=O)N[C@@H](CCCCN)C(=O)N[C@H](C(=O)N[C@@H](Cc1ccccc1)C(=O)N[C@@H](CCCCN)C(=O)N[C@@H](CCCN=C(N)N)C(=O)N[C@@H](CC(C)C)C(=O)O)[C@@H](C)CC` [GLFKKLRRKIKKGFKKIFKRL], the MIC in assay [1] was 3.8 µM (≈ 10 µg/mL); in [2], 15.9 µM (≈ 42 µg/mL); in [3], 15.9 µM (≈ 42 µg/mL); in assay [4], 10.6 µM (≈ 28 µg/mL); with Pseudomonas aeruginosa it was 8.59 µM (≈ 22.6 µg/mL); in [5], 1.97 µM (≈ 5.2 µg/mL). The minimal inhibitory concentration (MIC) is greater than 48.6 µM in [6]; 34.4 µM (≈ 90.5 µg/mL) with Escherichia coli; 10.6 µM (≈ 28 µg/mL) in [7]; 48.6 µM (≈ 128 µg/mL) in assay [8]; 48.6 µM (≈ 128 µg/mL) in the assay with Klebsiella pneumoniae; 12.2 µM (≈ 32 µg/mL) in assay [9]. For the same compound, the MIC in [10] is 24.3 µM (≈ 64 µg/mL); in assay [11], no less than 53.2 µM; in assay [12] it was 3.8 µM (≈ 10 µg/mL); in assay [13] it was 15.9 µM (≈ 42 µg/mL); in the assay with Candida albicans it was greater than 48.6 µM; in the assay on Staphylococcus aureus, 24.3 µM (≈ 64 µg/mL). Besides, the minimal inhibitory concentration (MIC) against Acinetobacter baumannii worked out at 12.2 µM (≈ 32 µg/mL); in assay [14], 10.6 µM (≈ 28 µg/mL); in [15] it was 7.97 µM (≈ 21 µg/mL); in [16], 24.3 µM (≈ 64 µg/mL); in assay [17], 15.9 µM (≈ 42 µg/mL); in [18], 24.3 µM (≈ 64 µg/mL).
`CC[C@H](C)[C@H](N)C(=O)N[C@H](C(=O)N[C@@H](Cc1ccc(O)cc1)C(=O)N[C@H]1CSSC[C@@H](C(=O)N[C@@H](CCC(N)=O)C(=O)N[C@@H](CCCN=C(N)N)C(=O)N[C@@H](CCSC)C(=O)O)NC(=O)[C@H](CCCCN)NC(=O)CNC(=O)[C@H]([C@@H](C)O)NC(=O)[C@H](CCCN=C(N)N)NC(=O)[C@H](CCCN=C(N)N)NC(=O)[C@H](CC(N)=O)NC1=O)[C@@H](C)CC` [IIYCNRRTGKCQRM]: the MIC came to 28.3 µM (≈ 49.2 µg/mL) in the assay on Escherichia coli D31; 7.07 µM (≈ 12.3 µg/mL) in the assay on Micrococcus luteus; 14.1 µM (≈ 24.6 µg/mL) against Bacillus megaterium; 1.73 µM (≈ 3.01 µg/mL) against Aerococcus viridans; 7.07 µM (≈ 12.3 µg/mL) in the assay with Alternaria brassicicola; 28.3 µM (≈ 49.2 µg/mL) in the assay on Escherichia coli D22. Also, the MIC came out at 28.3 µM (≈ 49.2 µg/mL) in the assay with Fusarium culmorum, 28.3 µM (≈ 49.2 µg/mL) in the assay with Klebsiella pneumoniae, 28.3 µM (≈ 49.2 µg/mL) in the assay with Neurospora crassa and 14.1 µM (≈ 24.6 µg/mL) against Botrytis cinerea.
As to `CC(C)C[C@H](NC(=O)[C@H](CCCCN)NC(=O)[C@H](C)NC(=O)[C@H](C)NC(=O)[C@H](C)NC(=O)[C@H](C)NC(=O)[C@H](C)NC(=O)[C@H](C)NC(=O)[C@H](CCCCN)NC(=O)[C@H](CC(C)C)NC(=O)[C@H](C)NC(=O)[C@H](C)NC(=O)[C@H](CCCCN)NC(=O)[C@H](C)NC(=O)[C@H](C)NC(=O)[C@H](CCCCN)NC(=O)[C@H](C)NC(=O)[C@H](C)NC(=O)[C@H](CC(C)C)NC(=O)[C@H](CCCCN)NC(=O)[C@H](C)NC(=O)[C@H](C)NC(=O)[C@H](C)NC(=O)[C@H](C)NC(=O)[C@H](C)NC(=O)[C@H](C)NC(=O)[C@H](CCCCN)NC(=O)[C@@H](N)CC(C)C)C(=O)O` [LKAAAAAAKLAAKAAKAALKAAAAAAKL], the MIC in [19] is 3.2 µM (≈ 8.06 µg/mL); in assay [20], 3.2 µM (≈ 8.06 µg/mL); in the assay on Staphylococcus aureus it was no less than 80.6 µM; in assay [21], 3.2 µM (≈ 8.06 µg/mL).
On to `CSCC[C@H](NC(=O)[C@H](CCCCN)NC(=O)[C@H](CCCCN)NC(=O)[C@H](CC(C)C)NC(=O)[C@H](CC(C)C)NC(=O)[C@H](CCCCN)NC(=O)[C@H](CCCCN)NC(=O)[C@H](CC(C)C)NC(=O)[C@H](CC(C)C)NC(=O)[C@@H](N)CCSC)C(=O)O` [MLLKKLLKKM], for which the MIC in assay [22] is no less than 60.2 µM; in assay [23] it was no less than 120 µM; in assay [24], no less than 60.2 µM.
The compound `CC(C)C[C@H](NC(=O)[C@H](CC(N)=O)NC(=O)[C@H](Cc1c[nH]c2ccccc12)NC(=O)[C@@H](NC(=O)CNC(=O)CNC(=O)[C@H](CCCN=C(N)N)NC(=O)[C@H](CC(=O)O)NC(=O)[C@H](CC(C)C)NC(=O)[C@H](CCCN=C(N)N)NC(=O)[C@@H](N)CCCN=C(N)N)C(C)C)C(=O)N[C@@H](CC(N)=O)C(=O)N[C@H](C(=O)N[C@@H](CC(N)=O)C(=O)N1CCC[C@H]1C(=O)NCC(=O)N[C@H](C(=O)N[C@H](C(=O)NCC(=O)N[C@@H](C)C(=O)N[C@@H](CCCN=C(N)N)C(=O)N[C@H](C(=O)N[C@@H](Cc1c[nH]c2ccccc12)C(=O)N[C@@H](C)C(=O)N[C@@H](CCCN=C(N)N)C(=O)N[C@H](C(=O)N[C@@H](CCCCN)C(N)=O)[C@@H](C)O)C(C)C)[C@@H](C)O)[C@@H](C)O)C(C)C` [RRLDRGGVWNLNVNPGTTGARVWARTK] showed an MIC in [25] of no less than 40 µM.
`NCCCC[C@H](NC(=O)CNC(=O)[C@H](CCCCN)NC(=O)[C@H](CCCCN)NC(=O)[C@H](Cc1ccccc1)NC(=O)[C@H](Cc1ccccc1)NC(=O)[C@H](CCCCN)NC(=O)[C@H](CCCCN)NC(=O)[C@H](Cc1ccccc1)NC(=O)[C@H](Cc1ccccc1)NC(=O)[C@H](CCCCN)NC(=O)CNC(=O)[C@@H](N)Cc1c[nH]c2ccccc12)C(=O)O` [WGKFFKKFFKKGK]: the MIC is no less than 38.2 µM in assay [26], no less than 153 µM in [27] and no less than 38.2 µM in assay [28].
